Results as given in patent US10294202B2, “Pyrrolidinones as herbicides” (FMC Corporation, priority 2013, dated 2019).

What was measured:
[1] = system: barnyardgrass; test: Test A pre-/postemergence herbicide test; assay type: in vivo, Echinochloa crus-galli
In short: (§1)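 Directed soil spray to seeded pots (preemergence) or spray onto one- to two-leaf seedlings 2–10 cm tall (postemergence); loam/sand substrate throughout. Evaluated visually after about 10 days against untreated plants, 0 = no effect, 100 = complete control.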

[2] = system: kochia; test: Test A pre-/postemergence herbicide test; assay type: in vivo, Kochia scoparia
In short: as §1

[3] = system: ragweed; test: Test A pre-/postemergence herbicide test; assay type: in vivo, Ambrosia elatior
In short: as §1

[4] = system: ryegrass, Italian; test: Test A pre-/postemergence herbicide test; assay type: in vivo, Lolium multiflorum
In short: as §1

[5] = system: giant foxtail; test: Test A pre-/postemergence herbicide test; assay type: in vivo, Setaria faberii
In short: as §1

[6] = system: pigweed; test: Test A pre-/postemergence herbicide test; assay type: in vivo, Amaranthus retroflexus
In short: as §1

[7] = system: wheat; test: Test A pre-/postemergence herbicide test; assay type: in vivo, Triticum aestivum; conditions: Postemergence
In short: as §1

[8] = system: corn; test: Test A pre-/postemergence herbicide test; assay type: in vivo, Zea mays; conditions: Postemergence
In short: as §1

[9] = system: blackgrass; test: Test A postemergence herbicide test; assay type: in vivo, Alopecurus myosuroides
In short: (§2)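 Blackgrass and galium grown in pots of loam soil–sand blend, treated postemergence at 2–10 cm height, one- to two-leaf stage. Plants kept in greenhouse ~10 days, then visually rated for injury against untreated controls on a 0–100 scale (0 no effect, 100 complete control).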

[10] = system: galium; test: Test A postemergence herbicide test; assay type: in vivo, Galium aparine
In short: as §2

[11] = system: rice; test: Test B flooded paddy test; assay type: in vivo, Oryza sativa; conditions: Flood, scale of 0 to 100 where 0 is no effect and 100 is complete control
In short: (§3)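 Scoring: visual, compared with untreated controls, 0 = no effect through 100 = complete control, taken 13 to 15 days after treatment in the greenhouse. Compounds had been added to paddy water over soil flooded 3 cm deep at the plants' 2-leaf stage.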

[12] = system: sedge, umbrella; test: Test B flooded paddy test; assay type: in vivo, Cyperus difformis; conditions: Flood, scale of 0 to 100 where 0 is no effect and 100 is complete control
In short: as §3

[13] = system: ducksalad; test: Test B flooded paddy test; assay type: in vivo, Heteranthera limosa; conditions: Flood, scale of 0 to 100 where 0 is no effect and 100 is complete control
In short: as §3

[14] = system: barnyardgrass; test: Test B flooded paddy test; assay type: in vivo, Echinochloa crus-galli; conditions: Flood, scale of 0 to 100 where 0 is no effect and 100 is complete control
In short: as §3

[15] = Postemergence, 125 g ai/ha, visual rating on 0 to 100 scale (0 no effect, 100 complete control), approx. 10 days
[16] = Postemergence, 500 g ai/ha, 0 to 100 scale (0 no effect, 100 complete control)
[17] = Preemergence, 125 g ai/ha, 0 to 100 scale where 0 is no effect and 100 is complete control
[18] = Preemergence, 500 g ai/ha, visual rating on 0 to 100 scale (0 no effect, 100 complete control)
[19] = 125 g ai/ha, visual rating on 0 to 100 scale (0 no effect, 100 complete control), approx. 10 days
[20] = 500 g ai/ha, 0 to 100 scale (0 no effect, 100 complete control)
[21] = 125 g ai/ha, visual rating, 0 to 100 scale, 0 no effect, 100 complete control, approximately 10 days, preemergence
[22] = Postemergence, 125 g ai/ha, 0 to 100 scale, 0 is no effect, 100 is complete control
[23] = preemergence, 500 g ai/ha, 0 to 100 scale, 0 is no effect and 100 is complete control
[24] = 125 g ai/ha, 0 to 100 scale, 0 is no effect, 100 is complete control

O=C1NCC(c2cccc(Oc3ccccc3)c2)C1C(=O)Nc1ccc(F)cc1F (stereo not drawn) [Compound 331]
50: Plant response rating, Foxtail, Giant [5, 17]
90: Foxtail, Giant plant response rating [5, 18]
0: Plant response rating, Kochia [2, 15] | Plant response rating, Kochia [2, 17] | Kochia plant response rating [2, 18] | Plant response rating, Ragweed [3, 15] | Plant response rating, Ragweed [3, 16] | Plant response rating, Ragweed [3, 17] | Plant response rating, Ryegrass, Italian [4, 15] | Plant response rating, Ryegrass, Italian [4, 16] | Plant response rating, Ryegrass, Italian [4, 17] | Plant response rating, Pigweed [6, 15] | Plant response rating, Pigweed [6, 16] | Plant response rating, Pigweed [6, 17] | Plant response rating, Wheat [7, 19] | Plant response rating, Wheat [7, 20] | Plant response rating, Corn [8, 19] | Plant response rating, Corn [8, 20] | Plant response rating, Blackgrass [9, 19] | Plant response rating, Galium [10, 19] | Plant response rating, Rice ([11]; 500 g ai/ha) | Plant response rating, Sedge, Umbrella ([12]; 500 g ai/ha)
65: Plant response rating, Ducksalad ([13]; 500 g ai/ha)
30: Plant response rating, Blackgrass [9, 20] | Plant response rating, Galium [10, 20]
20: Plant response rating, Barnyardgrass [1, 15] | Plant response rating, Barnyardgrass [1, 17] | Plant response rating, Kochia [2, 16] | Ragweed plant response rating [3, 18] | Ryegrass, Italian plant response rating [4, 18] | Plant response rating, Foxtail, Giant [5, 15] | Pigweed plant response rating [6, 18]
70: Plant response rating, Barnyardgrass [1, 16]
40: Plant response rating, Barnyardgrass ([14]; 500 g ai/ha)
80: Barnyardgrass plant response rating [1, 18] | Plant response rating, Foxtail, Giant [5, 16]

O=C1NCC(c2cccc(OC(F)F)c2)C1C(=O)Nc1ccccc1Br (stereo not drawn) [Compound 228]
30: Kochia plant response rating (0 to 100 scale, 0 is no effect, 100 is complete control) ([2]; Postemergence, 500 g ai/ha) | Plant response rating, Ryegrass, Italian [4, 21] | Corn plant response rating (0 to 100 scale, 0 is no effect, 100 is complete control) ([8]; 500 g ai/ha) | Plant response rating, Galium [10, 24]
80: Barnyardgrass plant response rating (0 to 100 scale, 0 is no effect, 100 is complete control) ([1]; Postemergence, 500 g ai/ha) | Plant response rating, Barnyardgrass [1, 23] | Plant response rating, Foxtail, Giant [5, 21]
60: Plant response rating, Barnyardgrass [1, 22]
70: Plant response rating, Foxtail, Giant [5, 22]
90: Foxtail, Giant plant response rating (0 to 100 scale, 0 is no effect, 100 is complete control) ([5]; Postemergence, 500 g ai/ha) | Plant response rating, Foxtail, Giant [5, 23] | Plant response rating, Ducksalad ([13]; 500 g ai/ha)
0: Plant response rating, Kochia [2, 21] | Plant response rating, Ragweed [3, 21] | Plant response rating, Ragweed [3, 22] | Plant response rating, Ryegrass, Italian [4, 22] | Plant response rating, Pigweed [6, 21] | Plant response rating, Pigweed [6, 22] | Pigweed plant response rating (0 to 100 scale, 0 is no effect, 100 is complete control) ([6]; Postemergence, 500 g ai/ha) | Plant response rating, Pigweed [6, 23] | Plant response rating, Wheat [7, 24] | Plant response rating, Rice ([11]; 500 g ai/ha) | Plant response rating, Sedge, Umbrella ([12]; 500 g ai/ha) | Plant response rating, Barnyardgrass ([14]; 500 g ai/ha)
40: Plant response rating, Ryegrass, Italian [4, 23] | Blackgrass plant response rating (0 to 100 scale, 0 is no effect, 100 is complete control) ([9]; 500 g ai/ha) | Galium plant response rating (0 to 100 scale, 0 is no effect, 100 is complete control) ([10]; 500 g ai/ha)
50: Plant response rating, Barnyardgrass [1, 21]
20: Plant response rating, Kochia [2, 22] | Plant response rating, Kochia [2, 23] | Ragweed plant response rating (0 to 100 scale, 0 is no effect, 100 is complete control) ([3]; Postemergence, 500 g ai/ha) | Plant response rating, Ragweed [3, 23] | Ryegrass, Italian plant response rating (0 to 100 scale, 0 is no effect, 100 is complete control) ([4]; Postemergence, 500 g ai/ha) | Wheat plant response rating (0 to 100 scale, 0 is no effect, 100 is complete control) ([7]; 500 g ai/ha) | Plant response rating, Corn [8, 24] | Plant response rating, Blackgrass [9, 24]

O=C1NCC(c2cccc(S(F)(F)(F)(F)F)c2)C1C(=O)Nc1ccccc1C(F)(F)F (stereo not drawn) [Compound 215]
0: Plant response rating, Kochia [2, 21] | Plant response rating, Kochia [2, 22] | Kochia plant response rating (0 to 100 scale, 0 is no effect, 100 is complete control) ([2]; Postemergence, 500 g ai/ha) | Plant response rating, Kochia [2, 23] | Plant response rating, Ragweed [3, 21] | Plant response rating, Ragweed [3, 22] | Plant response rating, Ragweed [3, 23] | Plant response rating, Ryegrass, Italian [4, 21] | Plant response rating, Ryegrass, Italian [4, 22] | Ryegrass, Italian plant response rating (0 to 100 scale, 0 is no effect, 100 is complete control) ([4]; Postemergence, 500 g ai/ha) | Plant response rating, Pigweed [6, 21] | Plant response rating, Wheat [7, 24] | Wheat plant response rating (0 to 100 scale, 0 is no effect, 100 is complete control) ([7]; 500 g ai/ha) | Plant response rating, Corn [8, 24] | Corn plant response rating (0 to 100 scale, 0 is no effect, 100 is complete control) ([8]; 500 g ai/ha) | Plant response rating, Rice ([11]; 1000 g ai/ha) | Plant response rating, Sedge, Umbrella ([12]; 1000 g ai/ha)
10: Ragweed plant response rating (0 to 100 scale, 0 is no effect, 100 is complete control) ([3]; Postemergence, 500 g ai/ha) | Plant response rating, Ryegrass, Italian [4, 23]
50: Plant response rating, Barnyardgrass [1, 22] | Plant response rating, Pigweed [6, 22] | Plant response rating, Pigweed [6, 23] | Blackgrass plant response rating (0 to 100 scale, 0 is no effect, 100 is complete control) ([9]; 500 g ai/ha)
40: Plant response rating, Galium [10, 24]
30: Plant response rating, Blackgrass [9, 24]
60: Plant response rating, Barnyardgrass [1, 21] | Barnyardgrass plant response rating (0 to 100 scale, 0 is no effect, 100 is complete control) ([1]; Postemergence, 500 g ai/ha) | Pigweed plant response rating (0 to 100 scale, 0 is no effect, 100 is complete control) ([6]; Postemergence, 500 g ai/ha) | Galium plant response rating (0 to 100 scale, 0 is no effect, 100 is complete control) ([10]; 500 g ai/ha) | Plant response rating, Barnyardgrass ([14]; 1000 g ai/ha)
90: Plant response rating, Foxtail, Giant [5, 23]
80: Plant response rating, Barnyardgrass [1, 23] | Plant response rating, Foxtail, Giant [5, 21] | Plant response rating, Foxtail, Giant [5, 22] | Foxtail, Giant plant response rating (0 to 100 scale, 0 is no effect, 100 is complete control) ([5]; Postemergence, 500 g ai/ha) | Plant response rating, Ducksalad ([13]; 1000 g ai/ha)

O=C1NCC(c2cnn(CC(F)(F)F)c2)C1C(=O)Nc1ccccc1F (stereo not drawn) [Compound 298]
0: Plant response rating, Barnyardgrass [1, 15] | Plant response rating, Barnyardgrass [1, 16] | Plant response rating, Barnyardgrass [1, 17] | Plant response rating, Barnyardgrass [1, 23] | Plant response rating, Kochia [2, 15] | Plant response rating, Kochia [2, 16] | Plant response rating, Kochia [2, 17] | Plant response rating, Kochia [2, 23] | Plant response rating, Ragweed [3, 15] | Plant response rating, Ragweed [3, 16] | Plant response rating, Ragweed [3, 17] | Plant response rating, Ragweed [3, 23] | Plant response rating, Ryegrass, Italian [4, 15] | Plant response rating, Ryegrass, Italian [4, 16] | Plant response rating, Ryegrass, Italian [4, 17] | Ryegrass, Italian plant response rating [4, 18] | Plant response rating, Foxtail, Giant [5, 15] | Plant response rating, Foxtail, Giant [5, 16] | Plant response rating, Foxtail, Giant [5, 17] | Plant response rating, Foxtail, Giant [5, 23] | Plant response rating, Pigweed [6, 15] | Plant response rating, Pigweed [6, 16] | Plant response rating, Pigweed [6, 17] | Plant response rating, Pigweed [6, 23] | Plant response rating, Wheat [7, 19] | Plant response rating, Wheat [7, 20] | Plant response rating, Corn [8, 19] | Plant response rating, Corn [8, 20] | Plant response rating, Blackgrass [9, 19] | Plant response rating, Blackgrass [9, 20] | Plant response rating, Galium [10, 19] | Plant response rating, Galium [10, 20] | Plant response rating, Rice ([11]; 500 g ai/ha) | Plant response rating, Sedge, Umbrella ([12]; 500 g ai/ha) | Plant response rating, Ducksalad ([13]; 500 g ai/ha) | Plant response rating, Barnyardgrass ([14]; 500 g ai/ha)
